The nature of data set [1]: Cytotoxicity in noninfected HFFs (MTT). The note with it: human. Type of data set: cell-based, human. The protocol:
(§1) The glycosylated cardiotonic steroid compounds were tested for their anti-cytomegalovirus (CMV) activity. Specifically, the compounds were tested for the ability to inhibit HCMV replication. For each compound, the anti-HCMV activity in infected HFFs was expressed as EC50, whereas cytotoxicity in noninfected HFFs was expressed as CC50. Selectivity index (SI), defined as CC50/EC50, was calculated for each compound.

A further data set deals with α2β1 Na+/K+ ATPase (Homo sapiens, UniProt P50993). Description: Na+/K+ ATPase pump binding, α2β1 isoform (radioactive displacement assay). The protocol:
(§2) α1/2/3-Na^+/K^+ ATPase pump binding data was assessed for compounds of Table 1.
(§3) Further, from the results, a strong correlation between cancer cell cytotoxicity and α1/3-Na^+/K^+ ATPase pump binding selectivity was observed (see: α-L-amiceto-mono-, di- and tri-saccharides; Scheme 1). In addition, it was observed that mono-saccharides have improved activity and α1/2/3-isoform selectivity. […] The Na^+/K^+ ATPase binding data also correlates with the cytotoxicity data, which can be seen in the binding data of compounds 1.5-1.7 to all three isomers (α1β1/α2β1/α3β1), which decreases proportionally the MTT data (Table 1).

Another data set addresses α3β1 Na+/K+ ATPase (Homo sapiens, UniProt P13637). The experiment in a line: Na+/K+ ATPase pump binding, α3β1 isoform (radioactive displacement assay). As to the method:
as §2, §3

The target of another data set is α1β1 Na+/K+ ATPase (Homo sapiens, UniProt P05023). The experiment in a line: Na+/K+ ATPase pump binding, α1β1 isoform (radioactive displacement assay). The protocol: as §2, §3
In data set [2] the test system is NCI-H460 cells. Description: cells. The note with it: Homo sapiens. Type of data set: cell-based, Human. As to the method: (§4) Human non-small cell lung cancer cells (NCI-H460) were purchased from the American Type Culture Collection (Manassas, Va.). NCI-H460 cells were cultured in RPMI 1640 medium supplemented with 10% bovine fetal serum (FBS), 2 mM L-glutamine and 100-units/ml penicillin/streptomycin. All experiments with NCI-H460 cells were performed in medium enriched with 1% FBS serum, 2 mM L-glutamine and 100-units/ml penicillin/streptomycin. 1% FBS was used due to existing concerns about digitoxin binding to serum proteins.
Cells were seeded overnight in 96 well plates at a concentration of 1×10^4 cells/well, and then treated for 48 h with a log10 scale dilution series of the glycosylated CS compounds (e.g., digitoxin or D6-MA) dissolved in sterile filtered DMSO. Subsequently, 10 μl of 5 mg/ml MTT reagent was added to each well and then incubated for 4 h at 37° C. Isopropanol acidified with 0.04 N HCl was used to dissolve converted dye. Absorbance at 570 nm was measured using an Automated Microplate Reader ELx800 (BioTek, Winooski, Vt.). Each experiment was conducted 4 times with 4 replicate wells per concentration.
(§5) All results are presented as mean±standard deviation. For cell viability, ATPase activity and apoptosis assays, dose-response curves and concentrations that caused 50% effect (i.e. IC50) were calculated for the prepared compounds listed in Tables 1-3 in all the cell lines tested using non-linear regression analysis in GraphPad Prism 5.0 (San Diego, Calif.). Two-way analysis of variance (ANOVA) and unpaired two-tailed Student's t-test with α=0.05 were performed to compare the effect of compounds and administered dose on cell viability, apoptosis and quantified protein expression data. Post-hoc Tukey-Kramer HSD tests were conducted on significant ANOVA results. Results were considered significant when p≦0.05.

Data set [3] deals with NCI-H460 cells. Description: Apoptosis assay (Hoechst 33342). Type of data set: cell-based. The note with it: Homo sapiens, read-out: Anticancer Apoptosis GI50. As to the method:
as §4
Cells were seeded overnight in 12 or 24 well plates at a concentration of 1×10^5 cell/ml and subsequently treated with different concentrations of the glycosylated CS compounds for 24 h. After treatment, cells were incubated with […] of Hoechst 33342 for 30 min and analyzed for apoptosis by scoring the percentage of cells having intensely condensed chromatin and/or fragmented nuclei using fluorescence microscopy (Leica Microsystems, Bannockburn, Ill.). Approximately 1,000 nuclei from ten random fields were analyzed for each sample. The apoptotic index was calculated as the percentage of cells with apoptotic nuclei over total number of cells.
as §5

In a further data set the test system is HCMV. The experiment in a line: Anti-CMV activity assay, inhibition of HCMV replication in infected HFFs. Type of data set: cell-based, human Cytomegalovirus (HCMV). The note with it: for SI (selectivity index, CC50/EC50): CC50 noninfected HFFs / EC50 infected HFFs. The protocol:
It has been observed that the infection of human foreskin fibroblasts (HFF) cells with HCMV causes an up regulation of the α3-isoform of the Na^+/K^+-Pump. Therefore the inhibition of HCMV replication by the compounds described herein was tested using procedure described by Cai, H. et al., in Med. Chem. Lett. 2014, 5, 395-399, which is incorporated by reference in its entirety. Generally, inhibition of Towne HCMV: pp28-luciferase activity was measured in cell lysates of HCMV-infected HFFs collected at 72 h post infection (hpi). Virus DNA yield in supernatants of HCMV-infected cells collected at 96 hpi was measured by real-time PCR. Plaque reduction assay performed at 8 days postinfection. Data represent mean values (±SD) of triplicate determinations from three independent experiments.
Inhibition of TB40 HCMV: HFFs were infected with HCMV-TB40 strain at MOI of 1 pfu/cell and treated with compounds listed in Tables 1-3 for 3 days.
as §1

Another data set concerns noninfected HFFs. The experiment in a line: Cytotoxicity in noninfected HFFs (MTT). In kind it is cell-based, human. As to the method: as §1
Setting [4] is: NCI-H460, 48 h, read-out: Anticancer MTT IC50.
Where [5] appears, read: anti-HCMV activity in infected HFFs, read-out: EC50.

Like-named read-outs stand apart in the source and are kept apart here.

As a reminder, the CC50 is the concentration giving 50% cytotoxicity. In general, IC50 refers to the concentration needed to halve the response being measured. The term GI50 denotes the concentration that inhibits growth by half. The EC50 is the concentration that produces a half-maximal response. In data set [1], `CC1O[C@@H](O[C@H]2CCC3(C)C(CC[C@@H]4C3CCC3(C)[C@@H](C5=CC(=O)OC5)CC[C@]43O)C2)C(O)C(O)[C@H]1O` (stereo partly drawn) [Compound 1.2, digitoxigenin α-L-rhamnopyranoside] returned a CC50 of 664 ± 185 nM. In addition, the Kd at α2β1 Na+/K+ ATPase was determined as 23 nM; at α3β1 Na+/K+ ATPase it was 19 nM; at α1β1 Na+/K+ ATPase, 27 nM. Moreover, the IC50 with NCI-H460 cells [2] (setting [4]) came out at 47 nM. In addition, in the data set on NCI-H460 cells [3] (NCI-H460, 24 h), the GI50 was determined as 2 nM. In addition, the “SI (selectivity index, CC50/EC50)” value in the data set on HCMV turned out to be 173; in the data set on HCMV (listed as α-L-Rhamnose (1.2)), 139.25. The compound also came in with an EC50 in the data set with HCMV (Human betaherpesvirus 5) of 4.77 ± 0.23 nM.
In the case of `CC1OC(OC2C(C)OC(OC3C(C)OC(OC4CCC5(C)C(CCC6C5CCC5(C)C(C7=CC(=O)OC7)CCC65O)C4)C(O)C3O)C(O)C2O)C(O)C(O)C1O` (centres unmarked) [Compound 1.4], the values for the Kd on α2β1 Na+/K+ ATPase, at α3β1 Na+/K+ ATPase and on α1β1 Na+/K+ ATPase were 164 nM, 345 nM and 393 nM, respectively. Also, the IC50 with NCI-H460 cells [2] (setting [4]) was found to be 1350 nM.
With `CC1O[C@@H](O[C@H]2CCC3(C)C(CC[C@@H]4C3CCC3(C)[C@@H](C5=CC(=O)OC5)CC[C@]43O)C2)CC[C@H]1O` (stereo partly drawn) [Compound 1.5, digitoxigenin α-L-amecitopyranoside], the CC50 in data set [1] worked out at 655 ± 177 nM. Besides, the Kd at α2β1 Na+/K+ ATPase was found to be 38 nM; at α3β1 Na+/K+ ATPase, 26 nM; on α1β1 Na+/K+ ATPase, 56 nM. In addition, the IC50 in the data set with NCI-H460 cells [2] (setting [4]) stood at 48 nM. Besides, the concentration for 50% growth inhibition (GI50) in the data set with NCI-H460 cells [3] (NCI-H460, 24 h) amounted to 3 nM. The “SI (selectivity index, CC50/EC50)” value is 139 in the data set with HCMV and 173.61 in the data set on HCMV (listed as α-L-Amicetose (1.5)). In addition, a half-maximal effect in the data set on HCMV (Human betaherpesvirus 5) (EC50) was put at 3.77 ± 0.08 nM.
With `CC1OC(OC2CCC(OC3CCC4(C)C(CCC5C4CCC4(C)C(C6=CC(=O)OC6)CCC54O)C3)OC2C)CCC1O` (centres unmarked) [Compound 1.6], the results for the Kd at α2β1 Na+/K+ ATPase, at α3β1 Na+/K+ ATPase and at α1β1 Na+/K+ ATPase were 156 nM, 186 nM and 223 nM, respectively. For the same compound, the IC50 in the data set with NCI-H460 cells [2] (setting [4]) came to 510 nM.
The matching figures for `CC1OC(OC2CCC(OC3CCC(OC4CCC5(C)C(CCC6C5CCC5(C)C(C7=CC(=O)OC7)CCC65O)C4)OC3C)OC2C)CCC1O` (centres unmarked) [Compound 1.7]: 149 nM, 736 nM, 670 nM and 3960 nM.
In data set [1], `C[C@H]1O[C@@H](O[C@H]2[C@@H](O)C[C@H](O[C@H]3[C@@H](O)C[C@H](O[C@H]4CC[C@@]5(C)[C@H](CC[C@@H]6[C@@H]5CC[C@]5(C)[C@@H](C7=CC(=O)OC7)CC[C@]65O)C4)O[C@@H]3C)O[C@@H]2C)C[C@H](O)[C@@H]1O` [Digitoxin, reference compound] yielded a CC50 of 2810 ± 668 nM. The Kd amounted to 38 nM on α2β1 Na+/K+ ATPase (second KD column of Table 4, read-out: Na+/K+ATPase inhibition KD, α2β1); 36 nM on α3β1 Na+/K+ ATPase (third KD column of Table 4, head printed α1β1 a second time, read-out: Na+/K+ATPase inhibition KD, α1β1); 80 nM on α1β1 Na+/K+ ATPase (first KD column of Table 4, read-out: Na+/K+ATPase inhibition KD, α1β1). Besides, the half-inhibitory concentration (IC50) with NCI-H460 cells [2] (NCI-H460, Table 4, 48 h treatment, unit inferred, read-out: Anticancer MTT IC50) stood at 357 nM; in the data set on NCI-H460 cells [2] (NCI-H460, Table 5, H460 cells, compounds of Table 2, read-out: IC50) it was 157 nM. Moreover, in the data set with NCI-H460 cells [3] (NCI-H460, Table 4, 24 h treatment, unit inferred), the GI50 stood at 11 nM. Also, the “SI (selectivity index, CC50/EC50)” value was 120.46 with HCMV and 120 in the data set with HCMV (listed as digitoxin). In the data set with HCMV (Human betaherpesvirus 5), this compound showed an EC50 of 23.3 ± 0.67 nM.
Take α-D-Amicetose: half-maximal cytotoxicity in the data set with noninfected HFFs (CC50) was put at 1110 ± 273 nM. Further, the EC50 in the data set with HCMV (setting [5]) was found to be 37.5 ± 0.52 nM.
α-D-Rhamnose showed a CC50 with noninfected HFFs of 2270 ± 551 nM. Besides, in the data set on HCMV (setting [5]), the concentration for a half-maximal effect (EC50) was found to be 26.6 ± 0.88 nM.
